Results published in US3983125A, “Thieno-pyridine derivatives, process for their preparation and their applications” (Parcor, priority 1974, dated 1976).

How the values were obtained:
[1] = Acute toxicity, LD50 intravenous route, Miller and Tainter method; details: mouse, in vivo, mice, per kg body weight
[2] = Acute toxicity, LD50 oral route; details: mouse, in vivo, per kg body weight
Description: By the oral route, the LD50 /24 hrs/kg body weight is in excess of 300 mg with derivatives n°1 and n°2.

[3] = Carrageenin-induced localized edema method; type: in vivo; details: rat, 100 mg/kg orally per administration; for Percent anti-inflammatory activity after 1 hour: 1 hour after carrageenin; for Percent anti-inflammatory activity after 2 hours: 2 hours after carrageenin; for Percent anti-inflammatory activity after 5 hours: 5 hours after carrageenin
Description: a. Carrageenin-induced localized edema method
A 1% carrageenin solution (0.1 ml) is injected in the metatarsal flexor muscles of the right posterior limb of a rat at time 0 (zero). The animals of the treated lot are additionally given orally 100 mg/kg of the respective test derivatives, one hour prior to and then simultaneously with the injection of the phlogogenic agent, and then one hour and 2.5 hours thereafter. The determinations effected by means of a ROCH micrometer at times 0, 1 hour, 2 hours, 3 hours and 5 hours after carrageenin administration, provide a measure of the percent anti-inflammatory activity, as a function of time.

[4] = Ovalbumin-induced systemic edema method; type: in vivo; details: rat, 100 mg/kg orally, one hour prior to and simultaneously with ovalbumin; for Percent decrease (edematous reaction) after two hours: 2 hours; for Percent decrease (edematous reaction) after three hours: 3 hours
Description: b. Ovalbumin-induced systemic edema method
Rats are administered a simultaneous intraperitoneal injection of 1 ml ovalbumin and 0.5 ml of a 1% aqueous Evans Blue solution. On the other hand, the animals of the treated lot are administered orally 100 mg/kg of the test derivative, one hour prior to and simultaneously with the ovalbumin administration. The determinations are effected after 2 hours and after 3 hours. Thus are determined the average intensity of the edema and the percent decrease of the edematous reaction with respect to the controls.

[5] = Acetic acid method (writhing), according to Koster, Anderson and de Beer; type: in vivo; details: mice, 100 mg/kg orally, 30 minutes prior to acetic acid i.p.; writhing within following 30 minutes
Excerpt: a. Acetic acid method, according to Koster, Anderson and de Beer (Fed. Proced., 18, 1959, 412, 1, 626).
Intraperitoneal injection of a dilute acetic acid solution produces, in mice, characteristic repeated writhing movements, under the influence of pain.

[6] = Mechanical stimulation method according to Haffner; type: in vivo; details: mouse, 100 mg/kg orally
Description: b. Mechanical stimulation method according to Haffner (Deutsch. Wisch., 1959, 55, 731-733)
This method comprises placing a forcipressure forceps at the base of the tail of a mouse and noting the number of self-inflicted bites due to the animal's efforts to remove the forceps. The decrease of the number of bites prior to and after oral administration of the test derivative, at a dosage of 100 mg/kg, provides a measure of the antalgic activity of the derivatives of this invention.

OC1CNCc2ccsc21 (centres unmarked) [Derivative 1, 7-hydroxy-4,5,6,7-tetrahydro-thieno[3,2-c]pyridine]
LD50 at 24 h [1]: 75 mg/kg
LD50 at 24 h [2]: > 300 mg/kg
Percent anti-inflammatory activity after 1 hour [3]: 41%
Percent anti-inflammatory activity after 2 hours [3]: 48%
Percent anti-inflammatory activity after 5 hours [3]: 53%
Percent decrease (edematous reaction) after two hours [4]: 54%
Percent decrease (edematous reaction) after three hours [4]: 58%
Percent antalgic activity [5]: 63%
Average percent antalgic activity after 30 min. [6]: 72%
Average percent antalgic activity after 1 hr [6]: 68%
Average percent antalgic activity after 2 hrs [6]: 62%
Average percent antalgic activity after 3 hrs [6]: 55%

OC1CNCc2sccc21 (centres unmarked) [Derivative 2, 4-hydroxy-4,5,6,7-tetrahydro-thieno[2,3-c]pyridine]
LD50 at 24 h [1]: 68 mg/kg
LD50 at 24 h [2]: > 300 mg/kg
Percent anti-inflammatory activity after 1 hour [3]: 43%
Percent anti-inflammatory activity after 2 hours [3]: 54%
Percent anti-inflammatory activity after 5 hours [3]: 58%
Percent decrease (edematous reaction) after two hours [4]: 56%
Percent decrease (edematous reaction) after three hours [4]: 65%
Percent antalgic activity [5]: 66%
Average percent antalgic activity after 30 min. [6]: 76%
Average percent antalgic activity after 1 hr [6]: 69%
Average percent antalgic activity after 2 hrs [6]: 60%
Average percent antalgic activity after 3 hrs [6]: 54%

CC1NCC(O)c2ccsc21 (centres unmarked) [Derivative 3, 4-hydroxy-7-methyl-4,5,6,7-tetrahydro-thieno[2,3-c]pyridine]
LD50 at 24 h [1]: 300 mg/kg
Percent anti-inflammatory activity after 1 hour [3]: 38%
Percent anti-inflammatory activity after 2 hours [3]: 47%
Percent anti-inflammatory activity after 5 hours [3]: 56%
Percent decrease (edematous reaction) after two hours [4]: 45%
Percent decrease (edematous reaction) after three hours [4]: 56%
Percent antalgic activity [5]: 55%
Average percent antalgic activity after 30 min. [6]: 68%
Average percent antalgic activity after 1 hr [6]: 62%
Average percent antalgic activity after 2 hrs [6]: 58%
Average percent antalgic activity after 3 hrs [6]: 50%

CCC1NCC(O)c2ccsc21 (centres unmarked) [Derivative 4, 7-ethyl-4-hydroxy-4,5,6,7-tetrahydro-thieno[2,3-c]pyridine]
LD50 at 24 h [1]: 285 mg/kg
Percent anti-inflammatory activity after 1 hour [3]: 43%
Percent anti-inflammatory activity after 2 hours [3]: 51%
Percent anti-inflammatory activity after 5 hours [3]: 59%
Percent decrease (edematous reaction) after two hours [4]: 54%
Percent decrease (edematous reaction) after three hours [4]: 62%
Percent antalgic activity [5]: 61%
Average percent antalgic activity after 30 min. [6]: 74%
Average percent antalgic activity after 1 hr [6]: 65%
Average percent antalgic activity after 2 hrs [6]: 60%
Average percent antalgic activity after 3 hrs [6]: 52%

CC1NCC(O)c2sccc21 (centres unmarked) [Derivative 5, 7-hydroxy-4-methyl-4,5,6,7-tetrahydro-thieno[3,2-c]pyridine]
LD50 at 24 h [1]: 155 mg/kg
Percent anti-inflammatory activity after 1 hour [3]: 41%
Percent anti-inflammatory activity after 2 hours [3]: 55%
Percent anti-inflammatory activity after 5 hours [3]: 60%
Percent decrease (edematous reaction) after two hours [4]: 52%
Percent decrease (edematous reaction) after three hours [4]: 64%
Percent antalgic activity [5]: 59%
Average percent antalgic activity after 30 min. [6]: 76%
Average percent antalgic activity after 1 hr [6]: 64%
Average percent antalgic activity after 2 hrs [6]: 61%
Average percent antalgic activity after 3 hrs [6]: 52%

CCC1NCC(O)c2sccc21 (centres unmarked) [Derivative 6, 4-ethyl-7-hydroxy-4,5,6,7-tetrahydro-thieno[3,2-c]pyridine]
LD50 at 24 h [1]: 210 mg/kg
Percent anti-inflammatory activity after 1 hour [3]: 39%
Percent anti-inflammatory activity after 2 hours [3]: 51%
Percent anti-inflammatory activity after 5 hours [3]: 57%
Percent decrease (edematous reaction) after two hours [4]: 49%
Percent decrease (edematous reaction) after three hours [4]: 64%
Percent antalgic activity [5]: 58%
Average percent antalgic activity after 30 min. [6]: 71%
Average percent antalgic activity after 1 hr [6]: 67%
Average percent antalgic activity after 2 hrs [6]: 63%
Average percent antalgic activity after 3 hrs [6]: 58%
